Source: ChEMBL document CHEMBL1151270, “Phenolic and triterpene glycosides from the stems of Ilex litseaefolia” (J Nat Prod, 2005)
Converted amounts (≈) assume the structure as drawn.

test: Inhibition of lipase

Compound | IC50
COc1cc(C(=O)OCc2ccc(O[C@@H]3O[C@H](COC(C)=O)[C@@H](O)[C@H](O)[C@H]3O)c(O)c2)ccc1O [LITSEAEFOLOSIDE A] | > 100 µg/mL
COc1cc(C(=O)OCc2ccc(O[C@@H]3O[C@H](COC(=O)/C=C/c4ccc(O)c(O)c4)[C@@H](O)[C@H](O)[C@H]3O)c(O)c2)ccc1O [LITSEAEFOLOSIDE C] | 0.31 µg/mL (≈ 0.504 µM)
COc1cc(C(=O)OCc2ccc(O[C@@H]3O[C@H](CO)[C@@H](O)[C@H](O)[C@H]3O)c(O)c2)ccc1O [VANILLOYL CALLERYANIN] | > 100 µg/mL
